Source: ChEMBL document CHEMBL5543129, “Peptide Inhibitor Targeting the Extraterminal Domain in BRD4 Potently Suppresses Breast Cancer Both In Vitro and In Vivo” (J Med Chem, 2024)
Square brackets hold non-standard residues; d marks the D form. Peptide text beside a SMILES is read from it. Hyp = O=C(O)[C@@H]1C[C@@H](O)CN1; Ahx = NCCCCCC(=O)O

What was measured:
Type in all cases: cell-based
[1] = target: T1, von Hippel-Lindau disease tumor suppressor/Bromodomain-containing protein 4 (Homo sapiens) (UniProt O60885+P40337); assay: PROTAC activity at VHL/His-tagged BDR4 ET domain (1047 to 1362 residues) (unknown origin) transfected in MCF7 cells assessed as degradation by measuring fold change in remaining BRD4 level at 10 uM incubated for 24 hrs by immunoblotting analysis (reference value: […])
T1 sequence (P40337 whole entry, looked up, other chains not shown, the tested form may be a part): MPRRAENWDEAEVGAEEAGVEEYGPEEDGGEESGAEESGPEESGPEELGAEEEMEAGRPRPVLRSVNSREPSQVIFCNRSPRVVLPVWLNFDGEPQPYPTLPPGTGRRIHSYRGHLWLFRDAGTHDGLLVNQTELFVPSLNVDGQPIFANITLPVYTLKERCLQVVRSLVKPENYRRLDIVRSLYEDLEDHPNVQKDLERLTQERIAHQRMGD

[2] = target: T1, von Hippel-Lindau disease tumor suppressor/Bromodomain-containing protein 4 (Homo sapiens); assay: PROTAC activity at VHL/His-tagged BDR4 ET domain (601 to 683 residues) (unknown origin) transfected in MCF7 cells assessed as degradation by measuring fold change in remaining BRD4 level at 10 uM incubated for 24 hrs by immunoblotting analysis (reference value: […])
[3] = target: T1, von Hippel-Lindau disease tumor suppressor/Bromodomain-containing protein 4 (Homo sapiens); assay: PROTAC activity at VHL/His-tagged BDR4 ET domain (1047 to 1362 residues) (unknown origin) transfected in MCF7 cells assessed as degradation by measuring fold change in remaining BRD4 level at 5 uM incubated for 24 hrs by immunoblotting analysis (reference value: […])
[4] = target: von Hippel-Lindau disease tumor suppressor/Bifunctional arginine demethylase and lysyl-hydroxylase JMJD6 (Homo sapiens) (UniProt P40337+Q6NYC1); assay: Protac activity at VHL/JMJD6 in human MCF7 cells assessed as degradation by measuring fold change in remaining JMJD6 level at 5 uM incubated for 24 hrs by immunoblotting analysis (reference value: […])
[5] = target: T1, von Hippel-Lindau disease tumor suppressor/Bromodomain-containing protein 4 (Homo sapiens); assay: PROTAC activity at VHL/His-tagged BDR4 ET domain (1 to 470 residues) (unknown origin) transfected in MCF7 cells assessed as degradation by measuring fold change in remaining BRD4 level at 10 uM incubated for 24 hrs by immunoblotting analysis (reference value: […])
[6] = target: T1, von Hippel-Lindau disease tumor suppressor/Bromodomain-containing protein 4 (Homo sapiens); assay: PROTAC activity at VHL/His-tagged BDR4 ET domain (1 to 470 residues) (unknown origin) transfected in MCF7 cells assessed as degradation by measuring fold change in remaining BRD4 level at 5 uM incubated for 24 hrs by immunoblotting analysis (reference value: […])
[7] = target: T1, von Hippel-Lindau disease tumor suppressor/Bromodomain-containing protein 4 (Homo sapiens); assay: PROTAC activity at VHL/His-tagged BDR4 ET domain (471 to 730 residues) (unknown origin) transfected in MCF7 cells assessed as degradation by measuring fold change in remaining BRD4 level at 10 uM incubated for 12 hrs by immunoblotting analysis (reference value: […])

CC[C@H](C)[C@H](NC(=O)[C@H](Cc1ccc(O)cc1)NC(=O)[C@@H]1C[C@@H](O)CN1C(=O)[C@H](C)NC(=O)[C@@H](NC(=O)CCCCCNC(=O)[C@H](CCC(=O)O)NC(=O)CNC(=O)[C@H](CS)NC(=O)[C@H](CCCCN)NC(=O)[C@H](Cc1ccccc1)NC(=O)[C@H](CCCCN)NC(=O)[C@H](CCC(N)=O)NC(=O)[C@H](CC(N)=O)NC(=O)[C@H](CCCNC(=N)N)NC(=O)[C@H](CCCNC(=N)N)NC(=O)[C@H](CCCNC(=N)N)NC(=O)[C@H](CCCNC(=N)N)NC(=O)[C@H](CCC(N)=O)NC(=O)[C@H](CCCNC(=N)N)NC(=O)[C@H](CCCNC(=N)N)NC(=O)[C@H](CCCCN)NC(=O)[C@H](CCCCN)NC(=O)[C@H](CCCNC(=N)N)NC(=O)CNC(=O)[C@@H](N)Cc1ccc(O)cc1)[C@@H](C)CC)C(=O)O (H-YGRKKRRQRRRRNQKFKCGE[Ahx]IA[Hyp]YI-OH)
fold change (FC) [1]: 1
fold change (FC) [2]: 0.47
fold change (FC) [3]: 1.09
fold change (FC) [4]: 0.77
fold change (FC) [5]: 1.11
fold change (FC) [6]: 1.09
fold change (FC) [7]: 0.9
